Experiment [1] has as its target T1, MASP-2 (CCP1-CCP2-SP) (Homo sapiens, UniProt O00187).
T1 construct: 15 μL of Enzyme MASP-2 (CCP1-CCP2-SP) in Assay Buffer
Kind of experiment: Enzymatic assay for MASP-2 inhibitory activity (fluorogenic substrate). The format is biochemical. The gist of the method: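 MASP-2 (CCP1-CCP2-SP) cleaved a fluorogenic substrate based on the C2 cleavage site in 20 mM HEPES pH 7.4, 140 mM NaCl, 0.1% Tween 20 at room temperature. After 20 min the reaction was stopped with 0.1 M acetic acid and fluorescence read. % activity was normalized to DMSO-only and no-enzyme controls; IC50 taken as Ki.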

Experiment [2] deals with T2, human α-thrombin (Homo sapiens, UniProt P00734).
T2 construct: enzyme (human α-thrombin (BioPharm® Lab.)) in assay buffer; purchased BioPharm® Lab
The experiment can be described thus: Enzymatic assay for thrombin (fluorogenic peptide substrate Boc-VPR-AMC). The class given is biochemical. In outline:
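Human α-thrombin was run with the fluorogenic substrate Boc-VPR-AMC in 20 mM Hepes pH 7.4, 140 mM NaCl, 0.1% Tween 20 at room temperature for 20 min, then stopped with 0.1 M acetic acid. % activity was normalized to DMSO and no-enzyme controls. Under linear conditions IC50 equalled Ki, except for tight-binding inhibitors.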

Where a name gives a salt, the structure may show the parent alone. Where only a bound is given, the exact number is not on record here.

T1 sequence (O00187 445-686 limits assumed): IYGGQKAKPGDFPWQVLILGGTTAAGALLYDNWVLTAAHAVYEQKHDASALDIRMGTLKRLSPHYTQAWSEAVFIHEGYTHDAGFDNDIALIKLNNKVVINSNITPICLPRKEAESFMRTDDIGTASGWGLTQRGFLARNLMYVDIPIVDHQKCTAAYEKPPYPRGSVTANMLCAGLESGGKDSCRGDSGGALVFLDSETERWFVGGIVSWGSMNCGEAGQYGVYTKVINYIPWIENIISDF
T1 sequence (O00187 287-444 partner limits assumed): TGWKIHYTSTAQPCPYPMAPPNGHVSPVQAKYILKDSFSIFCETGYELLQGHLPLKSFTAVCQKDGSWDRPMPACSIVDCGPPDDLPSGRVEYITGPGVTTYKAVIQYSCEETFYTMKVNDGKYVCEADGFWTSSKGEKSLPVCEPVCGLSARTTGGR

On to `Cc1cc(F)cc(CNc2ncc3n(c2=O)[C@@H](C(=O)NCc2ccc(N)nc2C)CC3)c1` [Compound 163, (R)—N-((6-amino-2-methylpyridin-3-yl)methyl)-3-((3-fluoro-5-methylbenzyl)amino)-4-oxo-4,6,7,8-tetrahydropyrrolo[1,2-a]pyrazine-6-carboxamide], for which the Ki in experiment [1] and in experiment [2] was less than 500 nM each time.

On to `COc1cc(C)cc(CNc2ncc3n(c2=O)[C@@H](C(=O)NCc2cc4cnccc4[nH]2)CC3)c1` [Compound 164], for which the Ki in experiment [1] was less than 500 nM; in experiment [2], 2500 to 10000 nM.

Take `Cc1cc(F)cc(CNc2nc(Cl)c3n(c2=O)[C@H](C(=O)NCc2cnc4ccccn24)CC3)c1` [Compound 165, (S)-1-chloro-3-((3-fluoro-5-methylbenzyl)amino)-N-(imidazo[1,2-a]pyridin-3-ylmethyl)-4-oxo-4,6,7,8-tetrahydropyrrolo[1,2-a]pyrazine-6-carboxamide trifluoroacetate]: the figures for the Ki in experiment [1] and in experiment [2] were 10000 to 25000 nM and greater than 25000 nM, respectively.

Consider `Cc1nc(N)ccc1CNC(=O)[C@@H]1CCc2cnc(NCc3cnn(-c4ccccc4)c3)c(=O)n21` [Compound 166, (S)—N-((6-amino-2-methylpyridin-3-yl)methyl)-4-oxo-3-(((1-phenyl-1h-pyrazol-4-yl)methyl)amino)-4,6,7,8-tetrahydropyrrolo[1,2-a]pyrazine-6-carboxamide trifluoroacetate], for which the inhibitory constant (Ki) in experiment [1] is less than 500 nM; in experiment [2], 500 to 2500 nM.

For the compound `Cc1nc(N)ccc1CNC(=O)[C@@H]1CCc2cnc(NCc3cnn(C)c3)c(=O)n21` [Compound 167, (S)-N-((6-amino-2-methylpyridin-3-yl)methyl)-3-(((1-methyl-1H-pyrazol-4-yl)methyl)amino)-4-oxo-4,6,7,8-tetrahydropyrrolo[1,2-a]pyrazine-6-carboxamide trifluoroacetate], the Ki in experiment [1] is less than 500 nM; in experiment [2], 500 to 2500 nM.

In the case of `Cc1nc(N)ccc1CNC(=O)[C@@H]1CCc2cnc(NCc3cn4c(n3)CCCC4)c(=O)n21` [Compound 168, (S)-N-((6-amino-2-methylpyridin-3-yl)methyl)-4-oxo-3-(((5,6,7,8-tetrahydroimidazo[1,2-a]pyridin-2-yl)methyl)amino)-4,6,7,8-tetrahydropyrrolo[1,2-a]pyrazine-6-carboxamide trifluoroacetate], the Ki was in the range of 500 to 2500 nM in experiment [1] and 2500 to 10000 nM in experiment [2].

Consider `Cc1nc(N)ccc1CNC(=O)[C@@H]1CCc2cnc(NCc3cccc(-n4cccn4)c3)c(=O)n21` [Compound 169, (S)-3-((3-(1H-pyrazol-1-yl)benzyl)amino)-N-((6-amino-2-methylpyridin-3-yl)methyl)-4-oxo-4,6,7,8-tetrahydropyrrolo[1,2-a]pyrazine-6-carboxamide trifluoroacetate], for which the Ki in experiment [1] and in experiment [2] was less than 500 nM each time.

For `Cc1nc(N)ccc1CNC(=O)[C@@H]1CCc2cnc(NCc3nn(C)c4ccccc34)c(=O)n21` [Compound 170, (S)-N-((6-amino-2-methylpyridin-3-yl)methyl)-3-(((1-methyl-1H-indazol-3-yl)methyl)amino)-4-oxo-4,6,7,8-tetrahydropyrrolo[1,2-a]pyrazine-6-carboxamide trifluoroacetate], the Ki in experiment [1] and in experiment [2] was less than 500 nM each time.

Regarding `COc1cc(F)cc(CNc2ncc3n(c2=O)[C@H](C(=O)NCc2ccc(N)nc2C)CC3)c1` [Compound 171, (S)-N-((6-amino-2-methylpyridin-3-yl)methyl)-3-((3-fluoro-5-methoxybenzyl)amino)-4-oxo-4,6,7,8-tetrahydropyrrolo[1,2-a]pyrazine-6-carboxamide trifluoroacetate], the Ki in experiment [1] and in experiment [2] was less than 500 nM each time.

For the compound `Cc1nc(N)ccc1CNC(=O)[C@@H]1CCc2cnc(NCc3ccc4c(cnn4C)c3)c(=O)n21` [Compound 172], the Ki in experiment [1] and in experiment [2] was less than 500 nM each time.

For the compound `Cc1cc(F)cc(CNc2ncc3n(c2=O)[C@H](C(=O)NCc2ccc([C@@H](C)N)cc2)CC3)c1` [Compound 173, (S)—N-(4-((R)-1-aminoethyl)benzyl)-3-((3-fluoro-5-methylbenzyl)amino)-4-oxo-4,6,7,8-tetrahydropyrrolo[1,2-a]pyrazine-6-carboxamide trifluoroacetate], the Ki in experiment [1] is 2500 to 10000 nM; in experiment [2], greater than 25000 nM.

Consider `Cc1cc(F)cc(CNc2nc(-c3cnn(C)c3)c3n(c2=O)[C@H](C(=O)NCc2ccc(N)nc2C)CC3)c1` [Compound 174, (S)—N-((6-amino-2-methylpyridin-3-yl)methyl)-3-((3-fluoro-5-methylbenzyl)amino)-1-(1-methyl-1H-pyrazol-4-yl)-4-oxo-4,6,7,8-tetrahydropyrrolo[1,2-a]pyrazine-6-carboxamide trifluoroacetate], for which the Ki is less than 500 nM in experiment [1] and greater than 25000 nM in experiment [2].

In the case of `Cc1cc(F)cc(CNc2nc(-c3ccnn3C)c3n(c2=O)[C@H](C(=O)NCc2ccc(N)nc2C)CC3)c1` [Compound 175, (S)-N-((6-amino-2-methylpyridin-3-yl)methyl)-3-((3-fluoro-5-methylbenzyl)amino)-1-(1-methyl-1H-pyrazol-5-yl)-4-oxo-4,6,7,8-tetrahydropyrrolo[1,2-a]pyrazine-6-carboxamide trifluoroacetate], the Ki in experiment [1] is less than 500 nM; in experiment [2], 500 to 2500 nM.

For `Cc1cc(F)cc(CNc2nc(C3CCCCC3)c3n(c2=O)[C@H](C(=O)NCc2ccc(N)nc2C)CC3)c1` [Compound 176, (S)—N-((6-amino-2-methylpyridin-3-yl)methyl)-1-cyclohexyl-3-((3-fluoro-5-methylbenzyl)amino)-4-oxo-4,6,7,8-tetrahydropyrrolo[1,2-a]pyrazine-6-carboxamide DI-trifluoroacetate], the Ki in experiment [1] was less than 500 nM; in experiment [2], 10000 to 25000 nM.

As to `Cc1cc(F)cc(CNc2nc(C3CCCCC3)c3n(c2=O)[C@H](C(=O)NCc2cc4cnccc4[nH]2)CC3)c1` [Compound 177, trifluoroacetate], the Ki in experiment [1] was less than 500 nM; in experiment [2], greater than 25000 nM.

Turning to `Cc1cc(F)cc(CNc2ncc3n(c2=O)[C@H](C(=O)NCc2cc(Cl)ccc2-n2cnnn2)CC3)c1` [Compound 179, (S)—N-(5-chloro-2-(1H-tetrazol-1-yl)benzyl)-3-((3-fluoro-5-methylbenzyl)amino)-4-oxo-4,6,7,8-tetrahydropyrrolo[1,2-a]pyrazine-6-carboxamide], the Ki in experiment [1] and in experiment [2] was less than 500 nM in each case.

Consider `Cc1cc(F)cc(CNc2ncc3n(c2=O)[C@H](C(=O)NCc2cccc(Cl)c2)CC3)c1` [Compound 180], for which the Ki in experiment [1] was 500 to 2500 nM; in experiment [2], 2500 to 10000 nM.

Regarding `Cc1cc(F)cc(CNc2ncc3n(c2=O)[C@H](C(=O)NCc2cnc4[nH]cc(Cl)c4c2)CC3)c1` [Compound 182, (S)—N-((3-chloro-1H-pyrrolo[2,3-b]pyridin-5-yl)methyl)-3-((3-fluoro-5-methylbenzyl)amino)-4-oxo-4,6,7,8-tetrahydropyrrolo[1,2-a]pyrazine-6-carboxamide], the Ki in experiment [1] and in experiment [2] was less than 500 nM in each case.

With `Cc1cc(F)cc(CNc2ncc3n(c2=O)[C@H](C(=O)NCc2cnc4[nH]ccc4c2)CC3)c1` [Compound 183, (S)-N-((1H-pyrrolo[2,3-b]pyridin-5-yl)methyl)-3-((3-fluoro-5-methylbenzyl)amino)-4-oxo-4,6,7,8-tetrahydropyrrolo[1,2-a]pyrazine-6-carboxamide], the Ki in experiment [1] fell in the range of 500 to 2500 nM; in experiment [2] it was 2500 to 10000 nM.

Consider `Cc1cc(F)cc(CNc2ncc3n(c2=O)[C@H](C(=O)NCc2ccc(N)c(F)c2)CC3)c1` [Compound 184, (S)-N-(4-amino-3-fluorobenzyl)-3-((3-fluoro-5-methylbenzyl)amino)-4-oxo-4,6,7,8-tetrahydropyrrolo[1,2-a]pyrazine-6-carboxamide], for which the Ki in experiment [1] and in experiment [2] was 500 to 2500 nM in each case.

With `Cc1cc(F)cc(CNc2ncc3n(c2=O)[C@H](C(=O)NC(C#N)c2cccc(Cl)c2)CC3)c1` (stereo partly drawn) [Compound 185, (6S)-N-((3-chlorophenyl)(cyano)methyl)-3-((3-fluoro-5-methylbenzyl)amino)-4-oxo-4,6,7,8-tetrahydropyrrolo[1,2-a]pyrazine-6-carboxamide], the Ki in experiment [1] and in experiment [2] was 2500 to 10000 nM in each case.

As for `Cc1cc(C)cc(CNc2ncc3n(c2=O)[C@H](C(=O)N[C@@H]2CCc4nc(N)ccc42)CC3)c1` [Compound 186, (S)-N-((R)-2-amino-6,7-dihydro-5H-cyclopenta[b]pyridin-5-yl)-3-((3,5-dimethylbenzyl)amino)-4-oxo-4,6,7,8-tetrahydropyrrolo[1,2-a]pyrazine-6-carboxamide], the Ki in experiment [1] and in experiment [2] was less than 500 nM each time.

For `Cc1cccc(CNc2ncc3n(c2=O)[C@H](C(=O)N[C@H](C)c2ccc(N)nc2)CC3)c1` [Compound 187, (S)-N-((R)-1-(6-aminopyridin-3-yl)ethyl)-3-((3-methylbenzyl)amino)-4-oxo-4,6,7,8-tetrahydropyrrolo[1,2-a]pyrazine-6-carboxamide], the Ki in experiment [1] is less than 500 nM; in experiment [2], 2500 to 10000 nM.

As to `Cc1cc(F)cc(CNc2ncc3n(c2=O)[C@H](C(=O)NCc2ccc(N)c(Cl)c2)CC3)c1` [Compound 188, (S)-N-(4-amino-3-chlorobenzyl)-3-((3-fluoro-5-methylbenzyl)amino)-4-oxo-4,6,7,8-tetrahydropyrrolo[1,2-a]pyrazine-6-carboxamide], the Ki in experiment [1] and in experiment [2] was less than 500 nM in each case.

Values taken from patent publication US20250122225A1, “MASP-2 INHIBITORS AND METHODS OF USE” (Omeros Corporation, priority 2023, published 2025).
